These results are taken from patent US20050124562A1, “Bis-quinazoline compounds for the treatment of bacterial infections” (priority 2003, published 2005).

≈ marks a conversion by molar mass, not a printed value. Structures can show the parent of a compound that is named as a salt. Where two headings read alike, the source gives them in different places.

Format in all cases: cell-based
In assay [1] the test system is efflux mutants of P. aeruginosa. Description: Broth microdilution MIC (NCCLS), P. aeruginosa efflux mutants. Particulars: for MICs: efflux mutants of P. aeruginosa; for MIC: Pseudomonas aeruginosa, read-out: MICs. As to the method:
(§1) Representative bis-quinazolines were tested for antibacterial activity using the […] microdilution method to determine their minimum inhibitory concentrations (MICs). All compounds were tested using standard methods in accordance with NCCLS guidelines (National Committee for Clinical Laboratory Standards. 2003. Methods for dilution antimicrobial susceptibility testing for bacteria that grow aerobically. Approved Standard M-7 A-6, NCCLS, Wayne, Pa.). The bacterial strains used in the susceptibility tests were obtained from the American Type Culture Collection (ATCC) and included resistant phenotypes such as oxacillin-resistant S. aureus (ORSA) and vancomycin-resistant enterococci (VRE). The minimum bactericidal concentrations (MBCs) were determined for selected organisms. The effect of protein binding on the antibacterial activity of representative bis-quinazolines were determined by conducting MIC tests in the presence of human serum.
For orientation: In broth dilution the organism is exposed to a series of concentrations in liquid medium.

Assay [2] relates to efflux mutants of E. coli. Briefly: Broth microdilution MIC (NCCLS), E. coli efflux mutants. Particulars: Escherichia coli, read-out: MICs. As to the method: as §1
In assay [3] the test system is S. aureus, E. faecalis, S. pyogenes and S. pneumoniae. Briefly: Broth microdilution MIC (NCCLS), gram-positive strains. The procedure:
as §1

In the next assay the test system is M. catarrhalis. Description: Broth microdilution MIC (NCCLS), M. catarrhalis. Particulars: Moraxella catarrhalis, read-out: MIC range. As to the method: as §1
Another assay relates to H. influenzae. Description: Broth microdilution MIC (NCCLS), H. influenzae. Particulars: Haemophilus influenzae; some strains of H. influenzae. The procedure:
as §1

[4] abbreviates: range against some strains of S. aureus, E. faecalis, S. pyogenes and S. pneumoniae, read-out: MIC.

“2-[4-Hydroxy-6-(2-morpholin-4-yl-ethoxy)-quinazolin-2-ylamino]-6,7-dimethoxy-quinazolin-4-ol trifluoroacetate salt [Example 150]” yielded an MICs in assay [1] of 64 µg/mL.
Consider `Cc1nc(Nc2nc(C)c3ccc4c(c3n2)OCCO4)nc2ccc(OCCN3CCC(O)C3)cc12` (stereo not shown) [Example 12, 1-{2-[4-Methyl-2-(8-methyl-2,3-dihydro-1,4-dioxa-5,7-diaza-phenanthren-6-ylamino)-quinazolin-6-yloxy]-ethyl}-pyrrolidin-3-ol], for which the MIC is 16 to 64 µg/mL (≈ 32.8 to 131 µM) in assay [2]; 0.06 to 16 µg/mL (≈ 0.123 to 32.8 µM) in assay [3]; 64 µg/mL (≈ 131 µM) in assay [1]; 2 to 64 µg/mL (≈ 4.09 to 131 µM) with M. catarrhalis; 16 to 32 µg/mL (≈ 32.8 to 65.5 µM) in the assay on H. influenzae.
As for `COc1ccc2nc(Nc3nc(O)c4cc(OC)c(OC)c(OC)c4n3)nc(C)c2c1.O=C(O)C(F)(F)F` [Example 18, 6,7,8-Trimethoxy-2-(6-methoxy-4-methyl-quinazolin-2-ylamino)-quinazolin-4-ol trifluoroacetate salt], the MIC in assay [2] was 16 to 64 µg/mL; in assay [3] (setting [4]), 0.06 to 16 µg/mL; in assay [1], 64 µg/mL; with M. catarrhalis (some strains of M. catarrhalis), 2 to 64 µg/mL; with H. influenzae, 16 to 32 µg/mL.
On to `COc1ccc2nc(Nc3nc(O)c4cc(C)cc(C)c4n3)nc(C)c2c1` [Example 19, 2-(6-Methoxy-4-methyl-quinazolin-2-ylamino)-6,8-dimethyl-quinazolin-4-ol], for which the MIC in assay [2] is 16 to 64 µg/mL (≈ 44.3 to 177 µM); in assay [3], 0.06 to 16 µg/mL (≈ 0.166 to 44.3 µM); in assay [1], 64 µg/mL (≈ 177 µM); in the assay on M. catarrhalis, 2 to 64 µg/mL (≈ 5.53 to 177 µM); against H. influenzae it was 16 to 32 µg/mL (≈ 44.3 to 88.5 µM).
Take `COc1ccc2nc(Nc3nc(O)c4cc(C)cc(Br)c4n3)nc(C)c2c1` [Example 39, 8-Bromo-2-(6-methoxy-4-methyl-quinazolin-2-ylamino)-6-methyl-quinazolin-4-ol trifluoroacetate salt]: the MIC in assay [2] was 16 to 64 µg/mL; in assay [3], 0.06 to 16 µg/mL; in assay [1], 64 µg/mL; in the assay on M. catarrhalis, 2 to 64 µg/mL; against H. influenzae, 16 to 32 µg/mL.
Consider `COc1cc2nc(Nc3nc(O)c4cc([N+](=O)[O-])cc(C)c4n3)nc(C)c2cc1OC.O=C(O)C(F)(F)F` [Example 66], for which the MICs in assay [1] turned out to be 64 µg/mL.
As for `COc1cc2c(C)nc(Nc3nc(O)c4cccc(OC)c4n3)nc2cc1[N+](=O)[O-].O=C(O)C(F)(F)F` [Example 77, 2-(6-methoxy-7-nitro-4-methyl-quinazolin-2-ylamino)-8-methoxy-quinazolin-4-ol trifluoroacetate salt], the MIC in assay [2] was 16 to 64 µg/mL; in assay [3] (setting [4]) it was 0.06 to 16 µg/mL; in assay [1], 64 µg/mL; in the assay with M. catarrhalis (some strains of M. catarrhalis), 2 to 64 µg/mL; in the assay with H. influenzae, 16 to 32 µg/mL.
In the case of `COc1cc2nc(Nc3nc(O)c4c(OC)cccc4n3)nc(C)c2cc1OC.O=C(O)C(F)(F)F` [Example 84, 2-(6,7-Dimethoxy-4-methyl-quinazolin-2-ylamino)-5-methoxy-quinazolin-4-ol trifluoroacetate salt], the MIC was 16 to 64 µg/mL in assay [2]; 0.06 to 16 µg/mL in assay [3] (setting [4]); 64 µg/mL in assay [1]; 2 to 64 µg/mL in the assay with M. catarrhalis (some strains of M. catarrhalis); 16 to 32 µg/mL in the assay with H. influenzae.
Consider `COc1cc(OC)c2nc(Nc3nc(O)c4cc(OCCN5CCOCC5)ccc4n3)nc(C)c2c1.O=C(O)C(F)(F)F` [Example 141, 2-(6,8-Dimethoxy-4-methyl-quinazolin-2-ylamino)-6-(2-morpholin-4-yl-ethoxy)-quinazolin-4-ol trifluoroacetate salt], for which the MIC in assay [3] (setting [4]) was in the range of 0.06 to 16 µg/mL.
For `COc1cc2nc(Nc3nc(O)c4cc(OCCN5CCC(O)C5)ccc4n3)nc(C)c2cc1OC.O=C(O)C(F)(F)F` (stereo not shown) [Example 155, 2-(6,7-Dimethoxy-4-methyl-quinazolin-2-ylamino)-6-[2-(3-hydroxy-pyrrolidin-1-yl)-ethoxy]-quinazolin-4-ol trifluoroacetate salt], the MICs in assay [1] came to 64 µg/mL.
The same measure, in the same setting: the value for `COc1cc2nc(Nc3nc(O)c4cc(OCCN5CCC(O)C5)ccc4n3)nc(C)c2cc1OC.O=C(O)C(F)(F)F` (stereo not shown) [Example 156, 2-(6,7-Dimethoxy-4-methyl-quinazolin-2-ylamino)-6-[2-(3-hydroxy-pyrrolidin-1-yl)-ethoxy]-quinazolin-4-ol trifluoroacetate salt] was 64 µg/mL.
As to `COc1cc2nc(Nc3nc(O)c4cc(OCCNC(CO)CC(C)C)ccc4n3)nc(C)c2cc1OC` (stereo not shown) [Example 162, 2-(6,7-Dimethoxy-4-methyl-quinazolin-2-ylamino)-6-{2-[(1-hydroxymethyl-3-methylbutyl)-amino]-ethoxy}-quinazolin-4-olTrifluoroacetate salt], the MICs in assay [1] worked out at 64 µg/mL.
For the molecule `CCN(CCO)CCOc1ccc2nc(Nc3nc(C)c4cc(OC)cc(OC)c4n3)nc(O)c2c1.O=C(O)C(F)(F)F` [Example 167, 2-(6,8-Dimethoxy-4-methyl-quinazolin-2-ylamino)-6-{2-[ethyl-(2-hydroxy-ethyl)-amino]-ethoxy}-quinazolin-4-ol trifluoroacetate salt], in assay [3] (setting [4]), the MIC fell in the range of 0.06 to 16 µg/mL.
On to `COc1cc(OC)c2nc(Nc3nc(O)c4cc(OCCN5CCCC5CO)ccc4n3)nc(C)c2c1.O=C(O)C(F)(F)F` (stereo not shown) [Example 168, 2-(6,8-Dimethoxy-4-methyl-quinazolin-2-ylamino)-6-[2-(2-hydroxymethyl-pyrrolidin-1-yl)-ethoxy]-quinazolin-4-ol trifluoroacetate salt], for which the MIC in assay [3] (setting [4]) lay in the range of 0.06 to 16 µg/mL.
With `COc1cc2nc(Nc3nc(O)c4cc(OCCN5CCCCC5CO)ccc4n3)nc(C)c2cc1OC.O=C(O)C(F)(F)F` (stereo not shown) [Example 173, 2-(6,7-Dimethoxy-4-methyl-quinazolin-2-ylamino)-6-[2-(2-hydroxymethyl-piperidin-1-yl)-ethoxy]-quinazolin-4-ol trifluoroacetate salt], in assay [3] (setting [4]), the MIC lay in the range of 0.06 to 16 µg/mL.
On to `COc1cc2nc(Nc3nc(O)c4cc(OCCn5cnnc5)ccc4n3)nc(C)c2cc1OC.O=C(O)C(F)(F)F` [Example 174, 2-(6,7-Dimethoxy-4-methyl-quinazolin-2-ylamino)-6-(2-[1,2,4]triazol-4-yl-ethoxy)-quinazolin-4-ol trifluoroacetate salt], for which the MIC in assay [3] (setting [4]) lay in the range of 0.06 to 16 µg/mL.
As for `COc1cc2nc(Nc3nc(O)c4cc(OCCN5CCN(CCO)CC5)ccc4n3)nc(C)c2cc1OC.O=C(O)C(F)(F)F` [Example 175, 2-(6,7-Dimethoxy-4-methyl-quinazolin-2-ylamino)-6-{2-[4-(2-hydroxy-ethyl)-piperazin-1-yl]-ethoxy}-quinazolin-4-ol trifluoroacetate salt], in assay [3] (setting [4]), the MIC lay within 0.06 to 16 µg/mL.
Consider `COc1cc2nc(Nc3nc(O)c4cc(OCCNNCCO)ccc4n3)nc(C)c2cc1OC.O=C(O)C(F)(F)F` [Example 176, 2-(6,7-Dimethoxy-4-methyl-quinazolin-2-ylamino)-6-{2-[N′-(2-hydroxy-ethyl)-hydrazino]-ethoxy}-quinazolin-4-ol trifluoroacetate salt], for which the MIC in assay [3] (setting [4]) is 0.06 to 16 µg/mL.
Take `COc1cc2nc(Nc3nc(O)c4cc(OCCN5CC(C)OC(C)C5)ccc4n3)nc(C)c2cc1OC.O=C(O)C(F)(F)F` (stereo not shown) [Example 177, 2-(6,7-Dimethoxy-4-methyl-quinazolin-2-ylamino)-6-[2-(2,6-dimethyl-morpholin-4-yl)-ethoxy]-quinazolin-4-ol trifluoroacetate salt]: the MIC in assay [3] (setting [4]) was 0.06 to 16 µg/mL.
On to `COc1cc2nc(Nc3nc(O)c4cc(OCCNCCOCCO)ccc4n3)nc(C)c2cc1OC.O=C(O)C(F)(F)F` [Example 179, 2-(6,7-Dimethoxy-4-methyl-quinazolin-2-ylamino)-6-{2-[2-(2-hydroxy-ethoxy)-ethylamino]-ethoxy}-quinazolin-4-ol trifluoroacetate salt], for which, in assay [3] (setting [4]), the MIC lay within 0.06 to 16 µg/mL.
In the case of `COc1cc2nc(Nc3nc(O)c4cc(OCCN5CCCC5CN5CCCC5)ccc4n3)nc(C)c2cc1OC.O=C(O)C(F)(F)F` (stereo not shown) [Example 180, 2-(6,7-Dimethoxy-4-methyl-quinazolin-2-ylamino)-6-[2-(2-pyrrolidin-1-ylmethyl-pyrrolidin-1-yl)-ethoxy]-quinazolin-4-ol trifluoroacetate salt], the MIC in assay [3] (setting [4]) lay in the range of 0.06 to 16 µg/mL.
With `COc1cc2nc(Nc3nc(O)c4cc(OCCNC5CCCCC5O)ccc4n3)nc(C)c2cc1OC.O=C(O)C(F)(F)F` (stereo not shown) [Example 181, 2-(6,7-Dimethoxy-4-methyl-quinazolin-2-ylamino)-6-[2-(2-hydroxy-cyclohexylamino)-ethoxy]-quinazolin-4-ol trifluoroacetate salt], the MIC in assay [3] (setting [4]) was in the range of 0.06 to 16 µg/mL.
Still for that read-out and setting: the value for `COc1cc2nc(Nc3nc(O)c4cc(OCCN(C)Cc5cccnc5)ccc4n3)nc(C)c2cc1OC.O=C(O)C(F)(F)F` [Example 182, 2-(6,7-Dimethoxy-4-methyl-quinazolin-2-ylamino)-6-[2-(methyl-pyridin-3-ylmethyl-amino)-ethoxy]-quinazolin-4-ol trifluoroacetate salt] was 0.06 to 16 µg/mL.
With `COc1cc2nc(Nc3nc(O)c4cc(OCCNCCc5ccncc5)ccc4n3)nc(C)c2cc1OC.O=C(O)C(F)(F)F` [Example 183, 2-(6,7-Dimethoxy-4-methyl-quinazolin-2-ylamino)-6-[2-(2-pyridin-4-yl-ethylamino)-ethoxy]-quinazolin-4-ol TFA salt], in assay [3] (setting [4]), the MIC lay in the range of 0.06 to 16 µg/mL.
Take `COc1cc2nc(Nc3nc(O)c4cc(OCCN(C)Cc5ccncc5)ccc4n3)nc(C)c2cc1OC.O=C(O)C(F)(F)F` [Example 184, 2-(6,7-Dimethoxy-4-methyl-quinazolin-2-ylamino)-6-[2-(methyl-pyridin-4-ylmethyl-amino)-ethoxy]-quinazolin-4-ol TFA salt]: the MIC in assay [3] (setting [4]) fell in the range of 0.06 to 16 µg/mL.
